This note sets out measurements from patent publication US6262094A (priority 1999, dated 2001).

Structures are written as SMILES. Values after ≈ are worked out from the molar mass of the structure shown.

Common to all, as to type: cell-based
In assay [1] the test system is PC-3 (ATCC CRL 1435), human prostate adenocarcinoma. The following applies: 120 h, PC-3, incubation period of 5 days, MTT.
The test system of assay [2] is U-937 (DSM ACC 5), human histiocytic lymphoma. In words: Growth inhibition, WST-1 reduction in microtiter plates. The note with it: 120 h, U-937, incubation period of 5 days, read-out: IC50 K-562/U-937 leukemia.
Assay [3] relates to KB-3.1 (DSM ACC 158), human cervix carcinoma. The following applies: KB 3-1, 120 h, KB-3.1, incubation period of 5 days, MTT.
Assay [4] concerns SK-OV-3 (ATCC HTB-77), human ovary adenocarcinoma. The following applies: 120 h, SK-OV-3, incubation period of 5 days, MTT.
The test system of assay [5] is K-562 (ATCC CCL-243), human chronic myelogenous leukemia. In words: Growth inhibition, WST-1 reduction in microtiter plates. The following applies: K562, 120 h, K-562, incubation period of 5 days, read-out: IC50 K-562/U-937 leukemia. For orientation: Tetrazolium assays rely on reduction of a dye to a coloured formazan, in cell work by metabolically active cells.
The test system of assay [6] is A-549 (DSM ACC 107), human lung carcinoma. The note with it: A549, 120 h, A-549, incubation period of 5 days, MTT.

Take `C=Cc1nc(/C=C(\C)[C@@H]2C[C@@H]3O[C@@H]3CCC[C@H](C)[C@H](O)[C@@H](C)C(=O)C(C)(C)[C@@H](O)CC(=O)O2)cs1` [20-vinyl-epo A, [1S-[1R*,3R*(E),7R*,10S*,11R*,12R*,16S*]]-3-[2-(2-Ethenyl-4-thiazolyl)-1-methylethenyl]-7,11-dihydroxy-8,8,10,12-tetramethyl-4,17-dioxabicyclo[14.1. 0]heptadecane-5,9-dione]: the IC50 in assay [1] was determined as 0.4 ng/mL (≈ 0.791 nM); in assay [2] it was 1.5 ng/mL (≈ 2.97 nM); in assay [3], 3 ng/mL (≈ 5.93 nM); in assay [4], 1 ng/mL (≈ 1.98 nM).

Turning to `C/C(=C\c1csc(CN)n1)[C@@H]1C[C@@H]2O[C@@H]2CCC[C@H](C)[C@H](O)[C@@H](C)C(=O)C(C)(C)[C@@H](O)CC(=O)O1` [21-amino-epo A], the IC50 was determined as 3 ng/mL (≈ 5.9 nM) in assay [1], 3 ng/mL (≈ 5.9 nM) in assay [2], 4 ng/mL (≈ 7.86 nM) in assay [3] and 4 ng/mL (≈ 7.86 nM) in assay [4].

`C/C(=C\c1csc(CN)n1)[C@@H]1C[C@@H]2O[C@]2(C)CCC[C@H](C)[C@H](O)[C@@H](C)C(=O)C(C)(C)[C@@H](O)CC(=O)O1` [21-amino-epo B, [1S-[1R*,3R*(E),7R*,10S*,11R*,12R*,16S*]]-3-[2-[2-(Aminomethyl)-4-thiazolyl]-1-methylethenyl]-7,11-dihydroxy-8,8,10,12,16-pentamethyl-4,17-dioxabicyclo[14.1.0]heptadecane-5,9-dione]: the IC50 in assay [1] came out at 1.5 ng/mL (≈ 2.87 nM); in assay [3] it was 0.4 ng/mL (≈ 0.765 nM).

On to `C/C(=C\c1csc(CN=[N+]=[N-])n1)[C@@H]1C[C@@H]2O[C@]2(C)CCC[C@H](C)[C@H](O)[C@@H](C)C(=O)C(C)(C)[C@@H](O)CC(=O)O1` [21-azido-epo B, [1S-[1R*,3R* (E),7R*, 10S*,11R*,12R*,16S*]]-3-[2-[2-(Azidomethyl)-4-thiazolyl]-1-methylethenyl]-7,11-dihydroxy-8,8,10,12,16-pentamethyl-4,17-dioxabicyclo[14.1. 0]heptadecane-5,9-dione], for which the IC50 in assay [1] amounted to 0.4 ng/mL (≈ 0.729 nM); in assay [3] it was 0.5 ng/mL (≈ 0.911 nM).

With `C/C(=C\c1csc(CCl)n1)[C@@H]1C[C@@H]2O[C@@H]2CCC[C@H](C)[C@H](O)[C@@H](C)C(=O)C(C)(C)[C@@H](O)CC(=O)O1` [21-chloro-epo A], the IC50 in assay [5] was 12 ng/mL (≈ 22.7 nM); in assay [6], 10 ng/mL (≈ 18.9 nM); in assay [3], 60 ng/mL (≈ 114 nM).
